Experimental data as given in paper PMC12736563, “NMR Unveils Activity Mechanism of Linear Spider Venom Peptide Fragments Selected by Neural Networks Against Staphylococci Including MRSA” (Pharmaceutics, 2025).
≈ marks a conversion by molar mass, not a printed value. Entries after “also recorded” stand apart in the source; their conditions may differ. Read-outs that look alike come from different tables or passages of the source. Ends that are not written are not given here.

Columns and labels:
[1] = system: E. coli, ATCC 25922; assay: microbe, parasite or virus in culture; format: cell-based
[2] = system: E. coli, ΔtolC; assay: microbe, parasite or virus in culture; format: cell-based
[3] = system: E. coli, lptD; assay: microbe, parasite or virus in culture; format: cell-based
[4] = system: S. aureus ATCC 43300 (MRSA); assay: microbe, parasite or virus in culture; format: cell-based, Staphylococcus aureus
Description: (§1) For antimicrobial activity determination, Gram-positive strains (Staphylococcus aureus 209P, ATCC 29213, ATCC 25923, ATCC 43300 [MRSA], S. epidermidis ATCC 14990) were used. Experiments were conducted at bacterial concentrations of (0.5–1) × 10^5 cells/mL. […] Briefly, overnight cultures in Mueller-Hinton broth (MHB, HiMedia, Mumbai, Maharashtra, India) were diluted 1:100 into fresh MHB and incubated at 37 °C for 3 h. Cultures were then adjusted to ~1 × 10^5 cells/mL (by OD600) and used as an inoculate. Peptide stocks (10 mg/mL in water) were prepared in MHB to achieve a starting concentration of 200 μg/mL and subsequently diluted twofold.

[5] = system: S. aureus ATCC 29213 (MSSA); assay: microbe, parasite or virus in culture; format: cell-based, Staphylococcus aureus; settings: two-fold serial dilution in MHB, ~1 × 10^5 cells/mL, starting 200 μg/mL
Description: as §1

[6] = system: S. aureus ATCC 25923; assay: microbe, parasite or virus in culture; format: cell-based, Staphylococcus aureus; settings: ~1 × 10^5 cells/mL, starting 200 μg/mL
Description: as §1

[7] = system: S. epidermidis ATCC 14990; assay: microbe, parasite or virus in culture; format: cell-based, Staphylococcus epidermidis; settings: ~1 × 10^5 cells/mL, starting 200 μg/mL
Description: as §1

[8] = system: S. aureus 209P; assay: MIC, two-fold serial dilution in Mueller-Hinton broth; format: cell-based, Staphylococcus aureus; settings: conditions identical to those of Figure 2
Description: as §1
The mechanism was investigated using the S. aureus 209P strain.

[9] = system: S. aureus 209P cells; assay: Confocal microscopy of plasma membrane permeability to BCECF and PI; format: cell-based, Staphylococcus aureus; settings: 25 µM peptide, 15 min, Mueller–Hinton broth, CLSM
Description: Confocal laser scanning microscopy (CLSM) measurements were performed with an SP2 confocal inverted microscope (Leica Microsystems GmbH, Wetzlar, Germany) using the water-immersion 63×, 1.2 NA HCX PL APO objective. A typical voxel size was 0.15 × 0.15 × 0.9 μm. Excitation wavelengths were 561 nm for propidium iodide (PI) and 488 nm for 2′,7′-Bis-(2-carboxyethyl)-5-(and-6)-carboxyfluorescein (BCECF) (Sigma-Aldrich, MO, USA). Laser power was 3–10 μW the sample. Fluorescence was detected in the 500–550 and 650–700 nm ranges for BCECF and PI, respectively. S. aureus 209P cells were preincubated with acetoxymethyl ester of BCECF (10 μM) in Hank’s balanced salt solution for 30 min at 37 °C, exposed to PI (15 μM) and peptide XIII (25 μM) for 15 min in Mueller–Hinton broth, centrifuged gently in order to concentrate the cells (1600× g, 5 min, 20 °C), and examined by CLSM. Control cells were subjected to the same procedures but without addition of the peptide.

[10] = system: human red blood cells; assay: Hemolytic activity; format: cell-based; settings: for Hemolysis (%): fresh human capillary blood, two independent experiments; for Hemolytic activity (in words): human red blood cells, up to 100 μM
Description: Hemolytic activity was assessed using fresh capillary blood from a human volunteer, as described in [28]. Each peptide’s hemolytic activity was tested in two independent experiments.

[11] = pKa of His12 side chain by NMR pH titration; format: physicochemical
Description: NMR experiments in aqueous and micellar solutions were performed using samples containing 0.2–1.0 mM of peptide IX in 5% D2O at pH of 4.5. To model a membrane environment, 1-palmitoyl-2-hydroxy-sn-glycero-3-phospho-(1′-rac-glycerol) (LPPG, 16:0 Lyso PG, Avanti, Alabaster, AL, USA) was added stepwise to the aqueous peptide IX sample using a concentrated stock solution until a detergent-to-peptide (D:P) molar ratio of 140:1 was achieved. The NMR spectra were acquired on a Bruker Avance III 800 MHz spectrometer (Karlsruhe, Germany) equipped with a room-temperature triple-resonance (^1H, ^13C, ^15N) probe. Almost complete ^1H, ^13C, and ^15N resonance assignments for peptide IX in aqueous solution and LPPG micelles were obtained via a combination of 2D ^1H-TOCSY (τm = 60 ms), ^1H-NOESY (τm = 150 ms) and natural abundance ^13C-HSQC and ^15N-HSQC spectra measured at 5 °C and 45 °C, respectively, using the CARA 1.9.1.7 software (http://cara.nmr.ch/doku.php/Home (accessed on 12 December 2024)). […] The temperature gradients of amide protons (∆δ^1H^N/∆T) were measured from a series of 2D TOCSY spectra in water and 2D NOESY spectra in LPPG acquired in the temperature range of 15–45 °C. The pH-dependences of the ^1H^N and ^1H^δ2 His12 chemical shifts were measured in the pH range 2–9 from a series of 2D TOCSY spectra in water at 30 °C and 2D NOESY spectra in LPPG micelles at 45 °C. […]

[12] = Solubility in water (statement); format: physicochemical; settings: aqueous solution; NMR samples 0.2–1.0 mM
[13] = target: His12 (position 12, KFAGKHL----); assay: NMR
[14] = S. aureus ATCC 43300 (MRSA), two-fold serial dilution in MHB, ~1 × 10^5 cells/mL, starting 200 μg/mL, Figure 2
[15] = two-fold serial dilution in MHB, Figure 2
[16] = two-fold serial dilution in MHB, values in Figure 2

Molecule | MIC [4, 14] | MIC ([5]; Figure 2) | MIC [6, 15] | MIC [7, 16] | other results
CC1(C)S[C@@H]2[C@H](NC(=O)[C@H](N)c3ccccc3)C(=O)N2[C@H]1C(=O)O [Ampicillin, reference compound] |  |  |  |  | MIC ([1]; Escherichia coli, ATCC25922, read-out: MIC): 3.12 µg/mL (≈ 8.94 µM)
CCn1cc(C(=O)O)c(=O)c2ccc(C)nc21 [Nalidixic acid, reference compound] |  |  |  |  | MIC ([2]; Escherichia coli): 1.56 µg/mL (≈ 6.72 µM); MIC ([3]; Escherichia coli): 1.56 µg/mL (≈ 6.72 µM)
CN[C@H](CC(C)C)C(=O)N[C@H]1C(=O)N[C@@H](CC(N)=O)C(=O)N[C@H]2C(=O)N[C@H]3C(=O)N[C@H](C(=O)N[C@H](C(=O)O)c4cc(O)cc(O)c4-c4cc3ccc4O)[C@H](O)c3ccc(c(Cl)c3)Oc3cc2cc(c3O[C@@H]2O[C@H](CO)[C@@H](O)[C@H](O)[C@H]2O[C@H]2C[C@](C)(N)[C@H](O)[C@H](C)O2)Oc2ccc(cc2Cl)[C@H]1O [vancomycin, reference compound] |  |  |  |  | MIC ([4]; Staphylococcus aureus): 1.56 µg/mL (≈ 1.08 µM); MIC ([5]; Staphylococcus aureus, Figure 2, read-out: MIC): 0.78 µg/mL (≈ 0.538 µM); MIC ([6]; Staphylococcus aureus, ATCC25923, two-fold serial dilution in MHB, Figure 2, read-out: MIC): 3.12 µg/mL (≈ 2.15 µM); MIC ([7]; Staphylococcus epidermidis, ATCC14990, two-fold serial dilution in MHB, values in Figure 2, read-out: MIC): 0.78 µg/mL (≈ 0.538 µM)
AIWSSAMQFFIKHLKK [III] | > 200.00 µg/mL | > 200.00 µg/mL | > 200.00 µg/mL | > 200.00 µg/mL | 
FMKRLISKGKIGKEKLVAF [II] | > 200.00 µg/mL | > 200.00 µg/mL | > 200.00 µg/mL | > 200.00 µg/mL | 
FWFKALKSVAKFIA-NH2 [XIII] | 6.25 µg/mL | 3.12 µg/mL | 6.25 µg/mL | 6.25 µg/mL | MIC [8]: 6.25 µg/mL; entry of propidium iodide (PI) into cells [9]: PI penetrates into cells; leakage of BCECF from cells [9]: is released from them; MIC [1]: 50 µg/mL; MIC ([2]; E. coli, ΔtolC): 50 µg/mL; MIC ([3]; E. coli, lptD): 100 µg/mL; Hemolysis (%) ([10]; 25 μM peptide): 0%; Hemolysis (%) ([10]; 50 μM peptide): 0%; Hemolysis (%) ([10]; 100 μM peptide): 0%; Hemolytic activity (in words) [10]: minimal hemolytic activity; also recorded: lack of hemolysis
GWMKALKEHVEKLNKTGKLK [I] | > 200.00 µg/mL | > 200.00 µg/mL | > 200.00 µg/mL | > 200.00 µg/mL | 
IIWLPVLKFLASHV-NH2 [XIV] | 12.50 µg/mL | 12.50 µg/mL | 25.00 µg/mL | 6.25 µg/mL | MIC [1]: 200 µg/mL; MIC ([2]; E. coli, ΔtolC): >200 µg/mL; MIC ([3]; E. coli, lptD): 100 µg/mL; Hemolysis (%) ([10]; 25 μM peptide): 0%; Hemolysis (%) ([10]; 50 μM peptide): 60%; Hemolysis (%) ([10]; 100 μM peptide): 100%
ILADLIAKLKVRAA-NH2 [V] | > 200.00 µg/mL | > 200.00 µg/mL | > 200.00 µg/mL | > 200.00 µg/mL | 
IWLSLMKFAGKHL [X] | > 200.00 µg/mL | > 200.00 µg/mL | > 200.00 µg/mL | > 200.00 µg/mL | 
IWLSLMKFAGKHL-NH2 [IX] | 25.00 µg/mL | 25.00 µg/mL | 25.00 µg/mL | 12.50 µg/mL | pKa of His12 side chain ([11]; LPPG micelles, D:P 140:1, 2D NOESY at 45 °C): 7.86 ± 0.24; pKa of His12 side chain ([11]; aqueous solution, 5% D2O, 2D TOCSY at 30 °C, pH range of 3–8): 6.02 ± 0.05; MIC [1]: >200 µg/mL; MIC ([2]; E. coli, ΔtolC): 200 µg/mL; MIC ([3]; E. coli, lptD): 50 µg/mL; solubility in water (in words) [12]: water-soluble; Hemolysis (%) ([10]; 25 μM peptide): 0%; Hemolysis (%) ([10]; 50 μM peptide): 14%; Hemolysis (%) ([10]; 100 μM peptide): 100%
IWWTAVKFFGKQL-NH2 [XV, 13-residue fragment of Lycosin 9o from Lycosa hispanica; negative control in hemolysis] | > 200.00 µg/mL | > 200.00 µg/mL | > 200.00 µg/mL | > 200.00 µg/mL | Hemolysis (%) ([10]; 25 μM peptide): 0%; Hemolysis (%) ([10]; 50 μM peptide): 0%; Hemolysis (%) ([10]; 100 μM peptide): 0%; Hemolytic activity (in words) [10]: lack of hemolytic activity
KFAGKHLAKH-NH2 [XII] | > 200.00 µg/mL | > 200.00 µg/mL | > 200.00 µg/mL | > 200.00 µg/mL | 
LMKFAGKHLAKH-NH2 [XI] | > 200.00 µg/mL | > 200.00 µg/mL | > 200.00 µg/mL | > 200.00 µg/mL | 
LSLMKFAGKHLAKH-NH2 [VIII] | > 200.00 µg/mL | > 200.00 µg/mL | > 200.00 µg/mL | > 200.00 µg/mL | 
LSLMKFAGKHLAKHQL [VII] | > 200.00 µg/mL | > 200.00 µg/mL | > 200.00 µg/mL | 25.00 µg/mL | MIC [1]: >200 µg/mL; MIC ([2]; E. coli, ΔtolC): >200 µg/mL; MIC ([3]; E. coli, lptD): 12.5 µg/mL
SLMKFAGKHLAKHQLSKMG-NH2 [VI] | > 200.00 µg/mL | > 200.00 µg/mL | > 200.00 µg/mL | > 200.00 µg/mL | 
IWLSLMKFAGKHL [Peptide IX (N-terminal 13-residue fragment of Lycosin 9i) (Lycosa hispanica)] |  |  |  |  | pKa ([13]; 30 °C, free peptide in aqueous solution, disordered (random coil), 1 mM): 6.02±0.05; pKa ([13]; 45 °C, bound to anionic LPPG micelles, structured (helix-like Ile1-Met6, α-helix Lys7-Leu13)): 7.89 ± 0.24
